Measurements published in US9078915B2, “Prostate carcinogenesis predictor” (University of South Florida, priority 2007, dated 2015).

Tests used:
LNCaP cells = assay: Cell viability, trypan blue exclusion assay, LNCaP; assay type: cell-based, human
Procedure: (§1) The siRNAs complexes were made according to the following procedures: 60 μl of siRNAs (10 μM stock solution) were combined with 60 μl of tranfection reagent and incubated at room temperature for 30 minutes to make the siRNA complex. The siRNA complex was then added to twenty four hours post plated cells giving a final concentration of 50 nM of siRNA complex in complete media. The cells were incubated with either siRNA-A, or PKC-ι, PKC-ζ, and PKC-δ siRNA (50 nM for RWPE-1, 100 nM for LNCaP and 150 nM for DU-145 respectively). Following treatments, the cells were washed with phosphate buffered saline (PBS), trypsinized and resuspended in 2-3 ml of PBS.
(§2) Cell viability was quantified using trypan blue exclusion assay and the numbers of unstained cells were counted as mentioned above. Three independent experiments were carried out for each treatment with controls. Cell viability was determined relative to vehicle control using the mean and SD for each time point. Statistical determination by Student's T test using Minitab program (Minitab Inc. State College, Pa.).
(§3) Subconfluent RWPE-1 (A), LNCaP (B) and DU-145 (C) cells (2.5×10^5) were treated with PKC-ι siRNA (50 nM for RWPE-1, 100 nM for LNCaP and 150 nM for DU-145) complex from 24-72 h as described in “Materials and Methods.” At the indicated time, the viable cells were counted using trypan blue exclusion assay and a hematocyometry. Three independent experiments were performed and the mean of the viable cells and SD were plotted. After titrating PKC-ι siRNA concentrations from 50-100 nM, we used an optimal concentration of PKC-ι siRNA (50 nM) and control siRNA to suppress PKC-ι expression. […]
(§4) Cell lysates (50 μg) of an exponentially growing DU-145 cells were immunoprecipitated with either rabbit polyclonal PKC-ι antibody and/or IKKα/β rabbit polyclonal antibody. […] After incubation for 24-72 hours with ICA-1 (0.1 μM-60 μM), both the control cells and ICA-1 treated cells were trypsinized and viable cells were counted using trypan blue exclusion assay and a hematocytometry. […]

DU-145 cells = assay: Cell viability, trypan blue exclusion assay, DU-145; assay type: cell-based, human
Procedure: as §1, §2, §3, §4

PKC-ι = target: T1, PKC-ι (Homo sapiens, UniProt P41743); assay: Kinase assay: phosphorylation of IKKα/β by immunoprecipitated PKC-ι from DU-145 cells; assay type: biochemical; settings: ICA-1 100 nM, co-immunoprecipitated PKC-ι and IKKα/β
T1 construct: Cell lysates (50 μg) of an exponentially growing DU-145 cells were immunoprecipitated with either rabbit polyclonal PKC-ι antibody; endogenous in cells; host or cells: DU-145 (whole cell lysate, immunoprecipitate on anti-rabbit IgG-agarose beads)
T1 sequence (P41743 1-596): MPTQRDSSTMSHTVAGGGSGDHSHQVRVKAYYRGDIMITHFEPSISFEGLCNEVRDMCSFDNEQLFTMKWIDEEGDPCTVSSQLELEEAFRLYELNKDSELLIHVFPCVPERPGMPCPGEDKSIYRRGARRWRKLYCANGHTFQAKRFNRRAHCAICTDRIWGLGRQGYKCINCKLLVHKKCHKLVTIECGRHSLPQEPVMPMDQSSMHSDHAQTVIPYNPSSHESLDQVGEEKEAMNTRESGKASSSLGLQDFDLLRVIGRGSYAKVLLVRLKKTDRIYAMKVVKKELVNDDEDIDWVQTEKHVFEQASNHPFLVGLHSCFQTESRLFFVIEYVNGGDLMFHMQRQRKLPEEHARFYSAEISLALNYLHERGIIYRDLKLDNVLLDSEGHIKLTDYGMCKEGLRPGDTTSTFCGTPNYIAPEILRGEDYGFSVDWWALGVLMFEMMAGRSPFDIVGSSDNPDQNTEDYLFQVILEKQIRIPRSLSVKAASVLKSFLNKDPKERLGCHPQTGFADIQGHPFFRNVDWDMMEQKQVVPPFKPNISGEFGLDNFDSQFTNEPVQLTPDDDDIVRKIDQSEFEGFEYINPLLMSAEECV
Procedure: DU-145 cells (3.75×10^5) were grown as a monolayer in T75 flasks overnight. Whole cell lysates of (100 μg) were immunoprecipitated as follows: cell lystaes (50 μg) were pre-cleared for 30 min at 4° C. with anti-rabbit IgG-agarose beads (1:1 v/v, 10 μl) (catalog number A8914; Sigma Aldrich) and incubated with 5 μg of PKC-ι rabbit polyclonal antibody and/or IKKα/β rabbit polyclonal antibody (5 μg) overnight at 4° C. and then a further 1 h with anti-rabbit IgG-agarose beads (1:1 v/v, 50 μl). The immunoprecipitated samples were incubated with kinase buffer (50 μl of 3.03 mg/10 ml ATP, 30 mM of Tris p.H 7.4, 50 μl of 5 μg phosphotidylserine) at 30° C. in a water bath for 5 minutes. The reaction was terminated by placing the samples in ice. The PKC-ι inhibitor 1H-imidazole-4-carboxamide, 5-amino-1-[2,3-dihydroxy-4-[(phosphonooxy)methyl]cyclopentyl]-, [1R-(1a, 2b, 3b, 4a)] (ICA-1; 100 nM) was synthesized by Southern Research Institute (Birmingham, Ala.). […]
as §4

SMILES: NC(=O)c1ncn(C2CC(COP(=O)(O)O)C(O)C2O)c1N (stereo not drawn) [ICA-1, 1H-imidazole-4-carboxamide, 5-amino-1-[2,3-dihydroxy-4-[(phosphonooxy)methyl]cyclopentyl]-, [1R-(1a, 2b, 3b, 4a)]]
- inhibition of cell proliferation (LNCaP cells; ICA-1 0.1 μM-60 μM, 24-72 hours): does not significantly (p>0.05 for both cell lines) inhibit
- cell numbers at low concentration (LNCaP cells; ICA-1 0.1-0.5 μM): increase in cell numbers
- cell growth at high concentration (LNCaP cells; ICA-1 10-60 μM): inhibition of cell growth
- inhibition of cell proliferation (DU-145 cells; DU-145, ICA-1 0.1 μM-60 μM, 24-72 hours): does not significantly (p>0.05 for both cell lines) inhibit
- cell numbers at low concentration (DU-145 cells; DU-145, ICA-1 0.1-0.5 μM): increase in cell numbers
- cell growth at high concentration (DU-145 cells; DU-145, ICA-1 10-60 μM): inhibition of cell growth
- phosphorylation of IKKα/β (Ser176/180) by PKC-ι (PKC-ι): inhibited
